Consider 94 compounds from a melting point compilation (Tetko et al.; mined from patent text by program, amines drawn as free bases though some values may be those of a salt).

Each structure is given as a SMILES string.

Take `Cn1c(/C=C/C2CC(O)CC(=O)O2)c(-c2ccccc2)c2ccccc2c1=O` (centres undefined): the melting point is 190 to 193 °C.
`CC(=O)N1CC(CCN2CC=C(c3c[nH]c4cc(Cl)ccc34)CC2)c2cc(F)ccc21` (centres undefined) came in with a melting point of 183 to 185 °C.
In the case of `COC(=O)C1C(=O)NC(=O)C12C(=O)N1c3ccccc3Sc3cccc2c31` (centres undefined), the melting point fell in the range of 221 to 224 °C.
The compound `Cl/C(=C/n1cncn1)c1ccc(Br)cc1Cl` had a melting point of 84 °C.
`Cc1cccc(Nc2ncccc2[N+](=O)[O-])n1`: the melting point was 153 to 154 °C.
As for `O=C(O)Cc1ccc(NC(=O)C(COc2ccccc2)NS(=O)(=O)c2ccc(I)cc2)cc1` (racemic), the melting point was 224 to 225 °C.
For `COC(=O)C1C=C2c3cccc4[nH]c(C)c(c34)CC2N(C)C1` (centres undefined) the value was 154 °C; for `NS(=O)(=O)c1cc2c(s1)S(=O)(=O)CC(O)C2O` (centres undefined), 182 to 185 °C.
For `Cc1cc(CCCCCOc2ccc(C(N)=S)cc2)on1` the value was 156 to 158 °C; for `Cc1nnc2ccc(-c3cccc(N)c3)nn12`, 193 °C; for `O=C(Cl)N1CCCCCCCCCCCNC1=O`, 65 to 67 °C.
`O=Cc1cccn1-c1ccc(C(=O)O)cc1` registered a melting point of 269 to 270 °C.
For `CCN1C(=O)CCCc2cc(Nc3ncc(Cl)c(Nc4ccccc4S(=O)(=O)N(C)C)n3)c(OC)cc21` the value was 147 to 153 °C; for `N#Cc1c(C(F)(F)F)cc(-c2ccc(C(F)(F)F)cc2)[nH]c1=O`, 197 °C; for `O=C(Nc1nnn[nH]1)c1csc(-c2ccco2)n1`, 275 to 277 °C.
`CCOC(=O)CNC(=O)Oc1c(CC)n(C)ccc1=O` showed a melting point of 99 to 100 °C.
The compound `COc1cc(NCCCCCCCl)c2nccc(C)c2c1` yielded a melting point of 66 °C.
The compound `CCOC(=O)CNC1=C(C(=O)c2cccnc2Cl)CCC1` showed a melting point of 114 to 118 °C.
Turning to `Nc1cccc(S(=O)(=O)NCC(F)(F)F)c1`, the melting point worked out at 131 °C.
In the case of `Fc1cccc(F)c1COc1cccnc1NC(=S)Nc1ccc(Cl)cc1`, the melting point lay within 151 to 154 °C.
The compound `COCc1c(C)ccc(C(O)=S)c1C` registered a melting point of 192 to 194 °C.
Regarding `CC(C)(C)OC(=O)C[C@H](NC(=O)CNC(=O)c1csc(NC(=O)NCc2ccccc2)n1)C(=O)NCc1cccnc1`, the melting point was 185 °C.
`CO[C@@H]1CN(Cc2ccccc2)CC[C@H]1NC(=O)c1cccc(C(F)(F)F)c1` (relative stereo) showed a melting point of 135 °C.
For `N#Cc1nn(-c2c(Cl)cc(C(F)(F)F)cc2Cl)c(Br)c1O` the value was 145 to 151 °C; for `N#Cc1ccc(OCc2ccsc2)cc1OC(CCC(=O)O)c1c(F)cccc1Cl` (racemic), 128 to 130 °C; for `O=C(O)C1Cc2c(ccc3c(=O)c4c(F)cccc4oc23)O1` (centres undefined), 262 to 265 °C.
Regarding `CCN(CC)C(=S)n1cnc(S(=O)(=O)CC2CCCC2)n1`, the melting point was 78 °C.
Turning to `CC1NC(=O)NN=C1c1ccc(N)c(Br)c1` (centres undefined), the melting point was in the range of 222 to 224 °C.
`CCCNC(=N)Nc1nc2ccc(OC(F)(F)F)cc2s1` registered a melting point of 110 to 111 °C.
Take `COc1ccc(-c2nc(C(OC)(C(F)(F)F)C(F)(F)F)[nH]c2-c2ccc(OC)cc2)cc1`: the melting point was in the range of 129 to 131 °C.
Compound `COCCOc1ccc(CCCOc2cc(CCC(=O)O)n(C)n2)c(Oc2ncc(C(F)(F)F)cc2Cl)c1` had a melting point of 114 to 115 °C.
With `COc1ccc(Nc2cc(NC(C)C)ncn2)cc1`, the melting point lay in the range of 180 to 182 °C.
Consider `NC(C(=O)O)c1ccc(C(=O)O)cc1-c1ccccc1` (centres undefined), for which the melting point lay within 238 to 240 °C.
In turn, `CCC(=NOC)c1ccc(=O)[nH]c1CC` displayed a melting point of 120 to 125 °C.
For the compound `Cc1nc(OCCCC2CO2)cc(-c2ccc(F)cc2)n1` (centres undefined), the melting point lay within 63 to 64 °C.
Compound `Cn1c(C(F)(F)F)cc(=O)n(-c2cc(OC3CCCC3)c(Cl)cc2F)c1=O` displayed a melting point of 118 to 120 °C.
With `CC(C)CC[C@H](O)[C@H](CC1CCCCC1)NC(=O)[C@@H](N)Cc1c[nH]cn1`, the melting point fell in the range of 126 to 130 °C.
As for `CC(=O)Nc1c(C(=O)c2ccccc2)[nH]c2cc([N+](=O)[O-])ccc12`, the melting point was in the range of 234 to 236 °C.
As for `NS(=O)(=O)c1ccccc1CSc1ncccn1`, the melting point was in the range of 128 to 130 °C.
Compound `COc1ccc(C(O)CN)cc1OCc1ccccc1` (centres undefined) registered a melting point of 101 to 102 °C.
In the case of `CNCCOC(=O)[C@@H](C)c1ccc2cc(OC)ccc2c1`, the melting point was in the range of 64 to 68 °C.
`CC1(C)CC(=O)C(C(=O)Nc2ccc(Cl)c(C(F)(F)F)c2)C(=O)C1` registered a melting point of 128 to 131 °C.
Turning to `CC(NC(=O)C1CCNCC1)c1ccccc1` (centres undefined), the melting point came out at 136 °C.
For `CC(C)Cc1ccc(C(CC(=O)O)C(=O)O)s1` (centres undefined) the value was 106 to 108 °C; for `COc1cc(C2CCN(C[C@@H](C)O)CC2)ccc1Nc1ncc2ccc(-c3ccccc3N(C)S(C)(=O)=O)n2n1`, 91 to 103 °C.
For `C[C@H](CO)Nc1ccc([N+](=O)[O-])cc1F` the value was 128 to 130 °C; for `CC(C)(C#N)c1ccc(C#N)cc1`, 122 to 123 °C.
Take `CCCSc1sc(C(=O)OCC)c2c1C(=O)C(NC(=O)CC)CC2` (centres undefined): the melting point fell in the range of 191 to 192 °C.
`CCOC(=O)c1c(C(F)(F)F)oc2ccc(C(F)(F)F)cc2c1=O` displayed a melting point of 116 to 120 °C.
For `Cc1cc(-c2cc(C(F)(F)F)n3nccc3n2)ccc1C(F)(F)F` the value was 87 °C; for `CCOC(=O)c1c[nH]c2c(-c3ccncc3)c(-c3ccc(F)cc3)nn2c1=O`, above 250 °C; for `O=C(c1ccccc1)N1Cc2ccccc2Oc2ccc(Cl)cc21`, 103 to 106 °C.
In turn, `CON(C)C(=O)c1ccc(C(F)(F)F)cc1O` came in with a melting point of 69 to 70 °C.
For `O=c1[nH][nH]c2c1c(O)nc1cc(Cl)ccc12` the value was above 350 °C; for `CCCc1nn(C)c2c(=O)n(CCCc3cccc(OC(C)(C)C(=O)O)c3)c(C)nc12`, 78 to 80 °C.
In turn, `CSc1cc(C(=O)CBr)ccc1C` yielded a melting point of 85 to 86 °C.
For the compound `COc1ccc(-c2cc(C)c3occc3c2)cc1`, the melting point fell in the range of 82 to 83 °C.
With `CC1C(=O)N(CCO)C(=S)N1c1ccc(Oc2ccccc2)cc1` (centres undefined), the melting point stood at 120 °C.
For `C#CCN1C(=O)C(C)Oc2cc(Cl)c(-c3ccc(C(F)(F)F)n(C)c3=O)cc21` (centres undefined) the value was 203 to 204 °C.
With `CCc1cc2c(cc1CC)C(=O)C(Cl)=CC2=O`, the melting point fell in the range of 90 to 92 °C.
`CCOP(=O)(CCN1CCC(N(CCN)S(=O)(=O)c2ccc(Nc3nccc(Nc4ccc(F)c(F)c4)n3)cc2)CC1)OCC` displayed a melting point of 88 to 90 °C.
The compound `CCN(CC)CCNC(=O)c1cc(Cl)c(N)cc1OCC(=O)OC` returned a melting point of 92 to 94 °C.
`O=C(O)/C=C/C=C(c1cccc(Cl)c1)c1cccc(Cl)c1` displayed a melting point of 142 to 145 °C.
`COc1cc(C(=O)c2c(-c3ccc(OCCN4CCCC4)c(COCc4ccccc4)c3)sc3cc(O)ccc23)ccc1CN1CCOCC1` came in with a melting point of 87 to 90 °C.
`CCOC(=O)C1CCn2c1cc(C)c2C(=O)c1ccc(SC)n1C` (centres undefined) had a melting point of 101 to 102 °C.
For `O=C1NCC(Cc2ccccc2Cc2ccccc2)O1` (centres undefined) the value was 105 to 106 °C.
As for `N#CCCNNC(=O)c1ccc(OCc2ccccc2)cc1`, the melting point was 136 °C.
For `COC(=O)COc1ccc(SCc2cc(-c3ccc(Cl)cc3)on2)cc1C` the value was 79 to 80 °C.
In turn, `Cn1cc(-c2cc3nccnc3[nH]2)c2cc(OC3(CO)CCC3)ccc21` returned a melting point of 267 to 271 °C.
Regarding `FC(F)Oc1ccc(C2=NNCC2c2ccccc2)cc1` (centres undefined), the melting point was 65 to 75 °C.
Turning to `On1c(-c2ccncc2)nc2ccc(Cn3ccnc3)cc21`, the melting point stood at 198 °C.
On to `CCCCCCCOC(=S)SC(Cn1ccnc1)c1ccc(Cl)cc1Cl` (centres undefined), for which the melting point fell in the range of 107 to 113 °C.
For `C[C@H]1Oc2ccc(F)cc2NC(=O)[C@H]1N` the value was 173 to 177 °C; for `CCCC(NS(=O)(=O)c1ccccc1)P(=O)(Oc1ccccc1)Oc1ccccc1` (centres undefined), 173 to 175 °C; for `CCOC(=O)c1cc(OCCOC)c(OCCOC)cc1[N+](=O)[O-]`, 50 to 51 °C.
For the compound `CCOC(=O)C(=CNc1cccccc1=O)C(=O)OCC`, the melting point lay in the range of 66 to 68 °C.
Take `COc1cc2nc(Cl)nc(-c3cccc([N+](=O)[O-])c3)c2cc1OC`: the melting point was in the range of 228 to 230 °C.
For `COC1CC(CNC(=O)Nc2ccc([N+](=O)[O-])cc2)C(OC)O1` (centres undefined) the value was 172 to 174 °C; for `CC(CNc1ccc(Cl)cc1)COc1ccc(C(=O)O)cc1` (centres undefined), 148 to 150 °C.
Consider `O=S1NC=Cc2ccccc21` (centres undefined), for which the melting point was 198 to 200 °C.
`Cc1c(C(=O)CN2CCCCC2)c(C)n(C)c1C(=O)c1ccc(Cl)cc1Cl` gave a melting point of 177 to 179 °C.
For `COc1nc(Cl)cnc1N`, the melting point was in the range of 102 to 103 °C.
Consider `CCCCc1ncc(-c2cccc(C(=O)O)c2)n1Cc1ccccc1Cl`, for which the melting point was in the range of 200 to 202 °C.
Compound `OCc1cn(Cc2ccc(OCc3ccccc3)cc2)nc1OCc1ccc(OCc2ccccc2)cc1` yielded a melting point of 128 to 129 °C.
For `COC(=O)c1cccc(OCc2ccc3ccccc3c2)c1C` the value was 47 to 48 °C.
As to `CSC(C#N)c1cccc(C(=O)c2ccc(Cl)cc2)c1N` (centres undefined), the melting point stood at 122 °C.
Regarding `N#CN1CCC2(CC1)Oc1ccccc1C2n1cccc1` (centres undefined), the melting point is 165 to 168 °C.
In turn, `CN(C)c1ccc(NC2=CC(=O)C(N)=CC2=O)cc1` registered a melting point of 300 °C.
For `CCN(CC)CCOc1ccc(C(O)(CC)c2cccc(Cl)c2)cc1` (centres undefined) the value was 64 to 65 °C; for `COc1cc2c(-c3ccccc3)csc2c(Cl)c1Cl`, 117 to 119 °C; for `O=C1c2ccccc2-n2cncc2[C@@H]2CCN12`, 195 to 197 °C.
On to `Cn1c(=O)oc2c3ncccc3c(Cl)cc21`, for which the melting point lay within 219 to 221 °C.
The compound `COC(=S)NCc1cn(-c2ccc(-n3cccc3)cc2)nn1` gave a melting point of 150 °C.
In the case of `O=C(N=CNO)c1cc2c(cn1)[nH]c1ccccc12`, the melting point was 235 to 240 °C.

A word on the melting point: it is the temperature of the solid-liquid transition.
